Data published in US20230248834A1, “DEGRADATION OF (EGFR) BY CONJUGATION OF EGFR INHIBITORS WITH E3 LIGASE LIGAND AND METHODS OF USE” (BEIGENE, LTD., priority 2020, published 2023).

Columns and labels:
EGFR L858R/T790M/C797S = biological target: T1, EGFR L858R/T790M/C797S (Homo sapiens, UniProt P00533, C797S/L858R/T790M); experiment: EGFR degradation HTRF assay in BaF3-LTC cells; format: cell-based; conditions: BaF3-LTC (L858R/T790M/C797S), maximum percentage of inhibition (degradation); read-out: BaF3-LTC Dmax (%)
T1 construct: expressed in transfected cells; host or cells: BaF3-LTC
T1 sequence (P00533 25-1210 T790M/C797S/L858R): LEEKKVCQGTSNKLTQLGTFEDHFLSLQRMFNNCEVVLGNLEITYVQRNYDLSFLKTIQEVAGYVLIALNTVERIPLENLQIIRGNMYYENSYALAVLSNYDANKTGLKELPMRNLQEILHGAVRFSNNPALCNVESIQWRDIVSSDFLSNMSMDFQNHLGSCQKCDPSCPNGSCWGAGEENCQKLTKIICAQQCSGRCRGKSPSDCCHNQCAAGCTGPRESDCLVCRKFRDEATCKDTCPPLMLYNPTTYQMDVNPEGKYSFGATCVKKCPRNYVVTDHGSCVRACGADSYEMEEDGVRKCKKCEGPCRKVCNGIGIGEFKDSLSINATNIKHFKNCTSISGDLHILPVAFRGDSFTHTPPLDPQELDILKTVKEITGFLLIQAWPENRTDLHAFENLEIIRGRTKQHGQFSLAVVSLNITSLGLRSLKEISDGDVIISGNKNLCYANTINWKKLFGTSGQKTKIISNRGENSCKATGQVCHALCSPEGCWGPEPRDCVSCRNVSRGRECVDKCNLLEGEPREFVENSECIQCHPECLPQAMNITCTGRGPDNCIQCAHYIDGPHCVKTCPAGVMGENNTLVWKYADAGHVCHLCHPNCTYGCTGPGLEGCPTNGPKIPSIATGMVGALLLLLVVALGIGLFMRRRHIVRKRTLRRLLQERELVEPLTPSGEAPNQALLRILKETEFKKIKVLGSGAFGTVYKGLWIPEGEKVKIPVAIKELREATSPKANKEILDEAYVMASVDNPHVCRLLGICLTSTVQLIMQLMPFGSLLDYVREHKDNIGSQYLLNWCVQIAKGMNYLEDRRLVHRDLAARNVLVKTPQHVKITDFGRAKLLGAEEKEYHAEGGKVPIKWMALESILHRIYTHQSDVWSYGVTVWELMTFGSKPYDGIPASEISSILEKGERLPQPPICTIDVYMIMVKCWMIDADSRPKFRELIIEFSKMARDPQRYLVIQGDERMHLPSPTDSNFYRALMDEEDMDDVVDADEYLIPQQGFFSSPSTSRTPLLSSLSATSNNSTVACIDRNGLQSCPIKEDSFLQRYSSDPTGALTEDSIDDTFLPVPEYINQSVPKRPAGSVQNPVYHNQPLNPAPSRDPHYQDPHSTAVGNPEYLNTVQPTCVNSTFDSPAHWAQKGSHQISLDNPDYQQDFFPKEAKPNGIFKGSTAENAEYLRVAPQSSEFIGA
Method: (§1) BaF3-LTC(L858R/T790M/C797S) cells and BaF3 LC(L858R/C797S) cells are treated with compounds diluted in 0.2% DMSO cell culture medium and incubate for 16 h, 37° C., 5% CO2. the final concentration of compounds in all assay is start with 10 uM, 5-fold dilution, total 8 doses were included.
(§2) After 16 h treatment, add HTRF lysis buffer to each well; seal the plate and incubate 1 hour at room temperature on a plate shaker; Once the cells are lysed, 16 μL of cell lysate are transferred to a PE 384-well HTRF detection plate; 4 μL of pre-mixed HTRF antibodies are added to each well; Cover the plate with a plate sealer, spin 1000 rpm for 1 min, Incubate overnight at room temperature; Read on BMG PheraStar with HTRF protocol (337 nm-665 nm-620 nm).
(§3) The inhibition (degradation) percentage of the compound was calculated by the following equation: Inhibition percentage of Compound=100−100×(Signal−low control)/(High control−low control), wherein signal=each test compound group
(§4) High control=Cell group with added DMSO and without compound, indicating microplate readings without EGFR degradation;
(§5) Dmax is the maximum percentage of inhibition (degradation).
(§6) The IC50 (DC50) value of a compound can be obtained by fitting the following equation
(§7) Y=Bottom+(TOP−Bottom)/(1+((IC50/X)^hillslope))
(§8) Wherein, X and Y are known values, and IC50, Hillslope, Top and Bottom are the parameters obtained by fitting with software. Y is the inhibition percentage (calculated from the equation), X is the concentration of the compound; IC50 is the concentration of the compound when the 50% inhibition is reached. The smaller the IC50 value is, the stronger the inhibitory ability of the compound is. Vice versa, the higher the IC50 value is, the weaker the inhibitory ability of the compound is; Hillslope represents the slope of the fitted curve, generally around 1*; Bottom represents the minimum value of the curve obtained by data fitting, which is generally 0%±20%; Top represents the maximum value of the curve obtained by data fitting, which is generally 100%±20%. The experimental data were fitted by calculating and analyzing with Dotmatics data analysis software.

EGFR L858R/C797S = biological target: T2, EGFR L858R/C797S (Homo sapiens, UniProt P00533, C797S/L858R); experiment: EGFR degradation HTRF assay in BaF3 LC cells; format: cell-based; conditions: BaF3 LC (L858R/C797S), maximum percentage of inhibition (degradation); read-out: BaF3 LC Dmax (%)
T2 construct: expressed in transfected cells; host or cells: BaF3 LC
T2 sequence (P00533 25-1210 C797S/L858R): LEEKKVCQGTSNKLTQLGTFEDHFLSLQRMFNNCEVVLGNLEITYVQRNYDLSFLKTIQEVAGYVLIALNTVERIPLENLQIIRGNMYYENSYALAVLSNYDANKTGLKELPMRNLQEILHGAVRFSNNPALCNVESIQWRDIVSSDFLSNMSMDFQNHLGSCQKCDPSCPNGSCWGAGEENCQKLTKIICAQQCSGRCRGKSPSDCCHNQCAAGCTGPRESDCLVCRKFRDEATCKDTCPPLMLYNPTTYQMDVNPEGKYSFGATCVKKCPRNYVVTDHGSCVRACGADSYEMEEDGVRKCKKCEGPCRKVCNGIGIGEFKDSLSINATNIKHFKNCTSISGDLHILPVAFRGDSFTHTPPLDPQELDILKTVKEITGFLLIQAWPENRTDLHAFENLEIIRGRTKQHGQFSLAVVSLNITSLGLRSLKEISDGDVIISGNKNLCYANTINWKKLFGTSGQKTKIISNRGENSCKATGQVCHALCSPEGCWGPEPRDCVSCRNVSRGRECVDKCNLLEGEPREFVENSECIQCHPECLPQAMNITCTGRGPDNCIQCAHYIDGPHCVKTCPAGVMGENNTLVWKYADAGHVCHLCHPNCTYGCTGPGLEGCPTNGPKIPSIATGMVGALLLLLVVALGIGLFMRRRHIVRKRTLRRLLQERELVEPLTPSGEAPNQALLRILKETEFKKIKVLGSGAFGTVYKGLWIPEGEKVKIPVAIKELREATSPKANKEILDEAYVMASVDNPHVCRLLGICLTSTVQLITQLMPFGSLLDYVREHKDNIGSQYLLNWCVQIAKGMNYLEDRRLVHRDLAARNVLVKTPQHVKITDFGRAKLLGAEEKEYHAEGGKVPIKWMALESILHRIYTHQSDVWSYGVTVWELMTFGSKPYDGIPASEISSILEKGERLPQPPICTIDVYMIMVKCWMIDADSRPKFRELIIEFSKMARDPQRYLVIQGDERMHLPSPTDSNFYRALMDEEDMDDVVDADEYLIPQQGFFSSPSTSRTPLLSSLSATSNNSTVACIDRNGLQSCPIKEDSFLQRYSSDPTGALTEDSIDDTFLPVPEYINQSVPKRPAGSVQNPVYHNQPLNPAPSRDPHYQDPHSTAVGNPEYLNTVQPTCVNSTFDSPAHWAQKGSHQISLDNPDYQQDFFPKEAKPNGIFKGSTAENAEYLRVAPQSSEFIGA
Method: as §1, §2, §3, §4, §5, §6, §7, §8

Row | Dmax (EGFR L858R/T790M/C797S) | Dmax (EGFR L858R/C797S) | SMILES
1 | 90.3% | 91.8% | CCOc1cc(N2CCC(N3CCN(CCc4cccc5c4C(C)(C)C(=O)N5C4CCC(=O)NC4=O)CC3)CC2)c(CC)cc1Nc1ncc(Br)c(Nc2ccc3nc(CC)ccc3c2P(C)(C)=O)n1 (centres unmarked) [Example 572, 3-(4-(2-(4-(1-(4-((5-bromo-4-((5-(dimethylphosphoryl)-2-ethylquinolin-6-yl)amino)pyrimidin-2-yl)amino)-5-ethoxy-2-ethylphenyl)piperidin-4-yl)piperazin-1-yl)ethyl)-3,3-dimethyl-2-oxoindolin-1-yl)piperidine-2,6-dione]
2 | 94.6% | 85.5% | CCOc1cc(N2CCC(N3CCN(CCc4cccc5c4oc(=O)n5C4CCC(=O)NC4=O)CC3)CC2)c(CC)cc1Nc1ncc(Br)c(Nc2ccc3nc(CC)ccc3c2P(C)(C)=O)n1 (centres unmarked) [Example 473, 3-(7-(2-(4-(1-(4-((5-bromo-4-((5-(dimethylphosphoryl)-2-ethylquinolin-6-yl)amino)pyrimidin-2-yl)amino)-5-ethoxy-2-ethylphenyl)piperidin-4-yl)piperazin-1-yl)ethyl)-2-oxobenzo[d]oxazol-3(2H)-yl)piperidine-2,6-dione]
3 | 94.6% |  | CCc1cc(Nc2ncc(Br)c(Nc3ccc4nccnc4c3P(C)(C)=O)n2)c(OC)cc1N1CCC(N2CCN(CCc3cc(F)c([C@H]4CCC(=O)NC4=O)c(F)c3)CC2)CC1 [Example 751, (R)-3-(4-(2-(4-(1-(4-((5-bromo-4-((5-(dimethylphosphoryl)quinoxalin-6-yl)amino)pyrimidin-2-yl)amino)-2-ethyl-5-methoxyphenyl)piperidin-4-yl)piperazin-1-yl)ethyl)-2,6-difluorophenyl)piperidine-2,6-dione]
4 | 78.1% |  | CCOc1cc(N2CCC(N3CCN(CCc4cc(F)c(F)c5c4n(CC)c(=O)n5C4CCC(=O)NC4=O)CC3)CC2)c(CC)cc1Nc1ncc(Br)c(Nc2ccc3nc(CC)ccc3c2P(C)(C)=O)n1 (centres unmarked) [Example 742, 3-(4-(2-(4-(1-(4-((5-bromo-4-((5-(dimethylphosphoryl)-2-ethylquinolin-6-yl)amino)pyrimidin-2-yl)amino)-5-ethoxy-2-ethylphenyl)piperidin-4-yl)piperazin-1-yl)ethyl)-3-ethyl-6,7-difluoro-2-oxo-2,3-dihydro-1H-benzo[d]imidazol-1-yl)piperidine-2,6-dione]
5 | 95.7% |  | CCOc1cc(N2CCC(N3CCN(CCc4cc(F)c([C@H]5CCC(=O)NC5=O)c(F)c4)CC3)CC2)c(CC)cc1Nc1ncc(Br)c(Nc2ccc3nc(C)ncc3c2P(C)(C)=O)n1 [Example 738, (R)-3-(4-(2-(4-(1-(4-((5-bromo-4-((5-(dimethylphosphoryl)-2-methylquinazolin-6-yl)amino)pyrimidin-2-yl)amino)-5-ethoxy-2-ethylphenyl)piperidin-4-yl)piperazin-1-yl)ethyl)-2,6-difluorophenyl)piperidine-2,6-dione]
6 | 97.7% |  | CCOc1cc(N2CCC(N3CCN(CCc4cccc5c4n(CC)c(=O)n5C4CCC(=O)NC4=O)CC3)CC2)c(CC)cc1Nc1ncc(Br)c(Nc2ccc3nc(CC)ncc3c2P(C)(C)=O)n1 (centres unmarked) [Example 737, 3-(4-(2-(4-(1-(4-((5-bromo-4-((5-(dimethylphosphoryl)-2-ethylquinazolin-6-yl)amino)pyrimidin-2-yl)amino)-5-ethoxy-2-ethylphenyl)piperidin-4-yl)piperazin-1-yl)ethyl)-3-ethyl-2-oxo-2,3-dihydro-1H-benzo[d]imidazol-1-yl)piperidine-2,6-dione]

More lines, now with the values behind:

Row | SMILES | Dmax (EGFR L858R/T790M/C797S) | Dmax (EGFR L858R/C797S)
7 | CCOc1cc(N2CCC(N3CCN(CCc4cc(F)c([C@H]5CCC(=O)NC5=O)c(F)c4)CC3)CC2)c(CC)cc1Nc1ncc(Br)c(Nc2ccc3nc(CC)ncc3c2P(C)(C)=O)n1 [Example 460, (R)-3-(4-(2-(4-(1-(4-((5-bromo-4-((5-(dimethylphosphoryl)-2-ethylquinazolin-6-yl)amino)pyrimidin-2-yl)amino)-5-ethoxy-2-ethylphenyl)piperidin-4-yl)piperazin-1-yl)ethyl)-2,6-difluorophenyl)piperidine-2,6-dione] | 82.5% | 88.2%
8 | CCc1cc(Nc2ncc(Br)c(Nc3ccc4nc(C)c(F)cc4c3P(C)(C)=O)n2)c(OC)cc1N1CCC(N2CCN(C(=O)[C@@H]3CCN(c4cc(F)c([C@H]5CCC(=O)NC5=O)c(F)c4)C3)CC2)CC1 [Example 488, (R)-3-(4-((R)-3-(4-(1-(4-((5-bromo-4-((5-(dimethylphosphoryl)-3-fluoro-2-methylquinolin-6-yl)amino)pyrimidin-2-yl)amino)-2-ethyl-5-methoxyphenyl)piperidin-4-yl)piperazine-1-carbonyl)pyrrolidin-1-yl)-2,6-difluorophenyl)piperidine-2,6-dione] | 96.6% | 92.8%
9 | CCc1ncc2c(P(C)(C)=O)c(Nc3nc(Nc4cc(CC)c(N5CCC(N6CCN(CCc7cc(F)c([C@H]8CCC(=O)NC8=O)c(F)c7)CC6)CC5)cc4OC)ncc3Br)ccc2n1 [Example 589, (R)-3-(4-(2-(4-(1-(4-((5-bromo-4-((5-(dimethylphosphoryl)-2-ethylquinazolin-6-yl)amino)pyrimidin-2-yl)amino)-2-ethyl-5-methoxyphenyl)piperidin-4-yl)piperazin-1-yl)ethyl)-2,6-difluorophenyl)piperidine-2,6-dione] | 85.9% | 92.4%
10 | CCOc1cc(N2CCC(N3CCN(CCc4ccc(F)c5c4oc(=O)n5C4CCC(=O)NC4=O)CC3)CC2)c(CC)cc1Nc1ncc(Br)c(Nc2ccc3nc(CC)ccc3c2P(C)(C)=O)n1 (centres unmarked) [Example 505, 3-(7-(2-(4-(1-(4-((5-bromo-4-((5-(dimethylphosphoryl)-2-ethylquinolin-6-yl)amino)pyrimidin-2-yl)amino)-5-ethoxy-2-ethylphenyl)piperidin-4-yl)piperazin-1-yl)ethyl)-4-fluoro-2-oxobenzo[d]oxazol-3(2H)-yl)piperidine-2,6-dione] | 75.1% | 83.2%
11 | CCOc1cc(N2CCC(N3CCN(CCc4cc(F)cc5c4n(C)c(=O)n5C4CCC(=O)NC4=O)CC3)CC2)c(CC)cc1Nc1ncc(Br)c(Nc2ccc3nc(CC)ccc3c2P(C)(C)=O)n1 (centres unmarked) [Example 462, 3-(4-(2-(4-(1-(4-((5-bromo-4-((5-(dimethylphosphoryl)-2-ethylquinolin-6-yl)amino)pyrimidin-2-yl)amino)-5-ethoxy-2-ethylphenyl)piperidin-4-yl)piperazin-1-yl)ethyl)-6-fluoro-3-methyl-2-oxo-2,3-dihydro-1H-benzo[d]imidazol-1-yl)piperidine-2,6-dione] | 84.5% | 89.9%
12 | CCOc1cc(N2CCC(N3CCN(CCc4cc(F)c([C@H]5CCC(=O)NC5=O)c(F)c4)CC3)CC2)c(CC)cc1Nc1ncc(Br)c(Nc2ccc3c(=O)n(C)ncc3c2P(C)(C)=O)n1 [Example 502, (R)-3-(4-(2-(4-(1-(4-((5-bromo-4-((5-(dimethylphosphoryl)-2-methyl-1-oxo-1,2-dihydrophthalazin-6-yl)amino)pyrimidin-2-yl)amino)-5-ethoxy-2-ethylphenyl)piperidin-4-yl)piperazin-1-yl)ethyl)-2,6-difluorophenyl)piperidine-2,6-dione] | 96.7% | 87.6%
13 | CCOc1cc(N2CCC(N3CCN(CCc4c(F)ccc5c4n(C)c(=O)n5C4CCC(=O)NC4=O)CC3)CC2)c(CC)cc1Nc1ncc(Br)c(Nc2ccc3nc(CC)ccc3c2P(C)(C)=O)n1 (centres unmarked) [Example 503, 3-(4-(2-(4-(1-(4-((5-bromo-4-((5-(dimethylphosphoryl)-2-ethylquinolin-6-yl)amino)pyrimidin-2-yl)amino)-5-ethoxy-2-ethylphenyl)piperidin-4-yl)piperazin-1-yl)ethyl)-5-fluoro-3-methyl-2-oxo-2,3-dihydro-1H-benzo[d]imidazol-1-yl)piperidine-2,6-dione] | 90.2% | 88.9%
14 | CCOc1cc(N2CCC(N3CCN(CCc4cc(F)c([C@H]5CCC(=O)NC5=O)c(F)c4)CC3)CC2)c(CC)cc1Nc1ncc(C)c(Nc2cc(F)c3nc(CC)ccc3c2P(C)(C)=O)n1 [Example 733, (R)-3-(4-(2-(4-(1-(4-((4-((5-(dimethylphosphoryl)-2-ethyl-8-fluoroquinolin-6-yl)amino)-5-methylpyrimidin-2-yl)amino)-5-ethoxy-2-ethylphenyl)piperidin-4-yl)piperazin-1-yl)ethyl)-2,6-difluorophenyl)piperidine-2,6-dione] | 89.5% | 
